This is an account of results in ChEMBL document CHEMBL1773024, “New 29-nor-cycloartanes with a 3,4-seco- and a novel 2,3-seco-structure from the leaves of Sinocalycanthus chinensis” (Bioorg Med Chem, 2011).

Assay [1] deals with MCF7. The experiment in a line: Cytotoxicity against human MCF7 cells after 48 hrs by MTT assay. The conditions noted are these: MCF7, 48 h.
Assay [2] relates to K562. The experiment in a line: Cytotoxicity against human doxorubicin-resistant K562 cells after 6 hrs by MTT assay. Format: functional, cell-based. The conditions noted are these: K562, 6 h.
Assay [3] is described as follows: Cytotoxicity against human KB-C2 cells after 48 hrs by MTT assay. The conditions noted are these: KB-C2, 48 h. For orientation: Tetrazolium dyes change colour on reduction, which living cells bring about.
The nature of assay [4]: Cytotoxicity against human colchicine-resistant KB-C2 cells after 48 hrs by MTT assay. The settings on record: KB-C2, 48 h.
The test system of assay [5] is K562. Briefly: Cytotoxicity against human K562 cells after 6 hrs by MTT assay. The settings on record: K562, 6 h. The class given is functional, cell-based.
Assay [6] relates to KB. The experiment in a line: Cytotoxicity against human KB cells after 48 hrs by MTT assay.

In general, IC50 refers to the concentration that gives 50% inhibition.

In brackets after ≈: the same amount, converted by molar mass.

`C=C[C@@H]1CC[C@@H]2[C@]3(CC[C@]4(C)[C@@H]([C@H](C)[C@H]5CC=C(C)C(=O)O5)CC[C@@]24C)C[C@]13CCC(=O)OC` [SINOCALYCANCHINENSIN E]: the IC50 in assay [1] was above 100 µg/mL; in assay [2], 20.5 µg/mL (≈ 43.7 µM); in assay [3] it was 49.2 µg/mL (≈ 105 µM); in assay [4], 1.51 µg/mL (≈ 3.22 µM); in assay [5] it was 22.4 µg/mL (≈ 47.8 µM); in assay [6] it was 62.2 µg/mL (≈ 133 µM).

Consider `C=C[C@@H]1CC[C@@H]2[C@]3(CC[C@]4(C)[C@@H]([C@H](C)CC/C=C(/C)C(=O)O)CC[C@@]24C)C[C@]13CCC(=O)OC` [SINOCALYCANCHINENSIN B], for which the IC50 in assay [1] was 35.7 µg/mL (≈ 75.8 µM); in assay [2], 17.6 µg/mL (≈ 37.4 µM); in assay [3] it was 22.2 µg/mL (≈ 47.2 µM); in assay [4], 18.9 µg/mL (≈ 40.2 µM); in assay [5], 16.5 µg/mL (≈ 35.1 µM); in assay [6] it was 20.9 µg/mL (≈ 44.4 µM).

Turning to `C=C[C@@H]1CC[C@@H]2[C@]3(CC[C@]4(C)[C@@H]([C@H](C)[C@H]5CC=C(C)C(=O)O5)CC[C@@]24C)C[C@]13CCC(=O)O` [SINOCALYCANCHINENSIN D], the IC50 in assay [1] was 39.2 µg/mL (≈ 86.2 µM); in assay [2] it was 7 µg/mL (≈ 15.4 µM); in assay [3], 26.4 µg/mL (≈ 58.1 µM); in assay [4] it was 25.6 µg/mL (≈ 56.3 µM); in assay [5] it was 16.7 µg/mL (≈ 36.7 µM); in assay [6], 31.7 µg/mL (≈ 69.7 µM).

For the compound `COc1cccc2c1C(=O)c1c(O)c3c(c(O)c1C2=O)C[C@@](O)(C(C)=O)C[C@@H]3O[C@H]1C[C@H](N)[C@H](O)[C@H](C)O1` [DAUNORUBICIN], the IC50 was 0.033 µg/mL (≈ 0.0626 µM) in assay [1]; 8.5 µg/mL (≈ 16.1 µM) in assay [2]; 7.9 µg/mL (≈ 15 µM) in assay [3]; 11.6 µg/mL (≈ 22 µM) in assay [4]; 1.49 µg/mL (≈ 2.82 µM) in assay [5]; 0.45 µg/mL (≈ 0.853 µM) in assay [6].

Turning to `C=C[C@@H]1CC[C@@H]2[C@]3(CC[C@]4(C)[C@@H]([C@H](C)CC/C=C(/C)C(=O)O)CC[C@@]24C)C[C@]13CCC(=O)OC/C=C(\C)CCC[C@H](C)CCC[C@H](C)CCCC(C)C` [SINOCALYCANCHINENSIN C], the half-maximal inhibitory concentration (IC50) in assay [1], in assay [3], in assay [4], in assay [5] and in assay [6] was above 100 µg/mL in each case.

For the compound `C=C[C@@H]1CC[C@@H]2[C@]3(CC[C@]4(C)[C@@H]([C@H](C)CC/C=C(/C)C(=O)O)CC[C@@]24C)C[C@]13CCC(=O)O` [SINOCALYCANCHINENSIN A], the IC50 came out at 61.6 µg/mL (≈ 135 µM) in assay [1]; 38.9 µg/mL (≈ 85.2 µM) in assay [2]; 30.4 µg/mL (≈ 66.6 µM) in assay [3]; 33.4 µg/mL (≈ 73.1 µM) in assay [4]; 29.9 µg/mL (≈ 65.5 µM) in assay [5]; 30.7 µg/mL (≈ 67.2 µM) in assay [6].

As to `C/C(=C\CC[C@@H](C)[C@H]1CC[C@@]2(C)[C@@H]3CC[C@H]4[C@H](C)C(=O)CC[C@@]45C[C@@]35CC[C@]12C)C(=O)O` [SINOCALYCANCHINENSIN H], the half-maximal inhibitory concentration (IC50) in assay [1] was determined as 18.6 µg/mL (≈ 42.2 µM); in assay [2] it was 19.4 µg/mL (≈ 44 µM); in assay [3], 18.8 µg/mL (≈ 42.7 µM); in assay [4], 17.2 µg/mL (≈ 39 µM); in assay [5], 14.8 µg/mL (≈ 33.6 µM); in assay [6], 18.6 µg/mL (≈ 42.2 µM).

For `C/C(=C/CC[C@@H](C)[C@H]1CC[C@@]2(C)[C@@H]3CC[C@H]4[C@H](C)C(=O)CC[C@@]45C[C@@]35CC[C@]12C)C(=O)O` [SINOCALYCANCHINENSIN G], the concentration for half-maximal inhibition (IC50) in assay [1] is 23.7 µg/mL (≈ 53.8 µM); in assay [2] it was 7.3 µg/mL (≈ 16.6 µM); in assay [3], 21.6 µg/mL (≈ 49 µM); in assay [4], 21.4 µg/mL (≈ 48.6 µM); in assay [5] it was 14.8 µg/mL (≈ 33.6 µM); in assay [6], 19.9 µg/mL (≈ 45.2 µM).

Turning to `COC(=O)[C@@H](C)[C@@H]1CC[C@@H]2[C@]3(CC[C@]4(C)[C@@H]([C@H](C)CC/C=C(/C)C(=O)O)CC[C@@]24C)C[C@]13CCOC(C)=O` [SINOCALYCANCHINENSIN F], the half-maximal inhibitory concentration (IC50) in assay [1] amounted to 33.8 µg/mL (≈ 63.7 µM); in assay [2] it was 19.5 µg/mL (≈ 36.7 µM); in assay [3], 21.7 µg/mL (≈ 40.9 µM); in assay [4], 17.5 µg/mL (≈ 33 µM); in assay [5] it was 13.2 µg/mL (≈ 24.9 µM); in assay [6], 16.6 µg/mL (≈ 31.3 µM).
